# From patent US20230265151A1, “GIP/GLP1 CO-AGONIST COMPOUNDS” (priority 2020, published 2023)
# Like-named read-outs stand apart in the source and are kept apart here.
# Experiments:
# [1] = biological target: T1, human GIP receptor (hGIPR) (Homo sapiens, UniProt P48546); experiment: [125I]-GIP binding, SPA with membranes of CHO cells expressing hGIPR
# T1 construct: expressed in transfected cells; crude membranes
# T1 sequence (P48546 22-466): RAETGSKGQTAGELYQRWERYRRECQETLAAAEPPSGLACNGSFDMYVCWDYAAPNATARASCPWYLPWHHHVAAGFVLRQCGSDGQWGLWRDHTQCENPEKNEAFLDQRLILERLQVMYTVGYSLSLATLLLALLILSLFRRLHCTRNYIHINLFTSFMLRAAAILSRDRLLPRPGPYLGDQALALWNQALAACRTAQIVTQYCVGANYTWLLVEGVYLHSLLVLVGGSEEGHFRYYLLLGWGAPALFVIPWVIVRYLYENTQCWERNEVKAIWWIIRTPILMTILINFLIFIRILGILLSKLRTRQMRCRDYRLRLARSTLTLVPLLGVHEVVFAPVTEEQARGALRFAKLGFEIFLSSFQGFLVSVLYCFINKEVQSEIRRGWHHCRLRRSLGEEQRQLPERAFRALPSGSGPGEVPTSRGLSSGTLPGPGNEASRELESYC
# hGIPR = biological target: T2, hGIPR (Homo sapiens, UniProt P48546); experiment: Functional cAMP formation (HTRF) in HEK-293 clonal cells expressing hGIPR, 0.1% bovine casein, without or with 1.0% human serum albumin; format: cell-based; settings: for Emax: percent of maximal response to GIP(1-42)NH2; for EC50: cAMP
# T2 construct: expressed in transfected cells
# T2 sequence (P48546 22-466): T1 sequence (P48546 22-466)
# Outline: (§1)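 Cells were stimulated with peptide for 30 min at 37° C, then lysed in buffer carrying cAMP-d2 and anti-cAMP Eu3+-cryptate for a competitive HTRF read after at least 60 min at room temperature. The 665/620 nm ratio was converted to nM cAMP against a standard curve.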
# hGCGR = biological target: T3, hGCGR (Homo sapiens, UniProt P47871); experiment: Functional cAMP formation (HTRF) in HEK-293 clonal cells expressing hGCGR, 0.1% bovine casein, without or with 1.0% human serum albumin; format: cell-based; settings: cAMP, 37° C.
# T3 construct: expressed in transfected cells
# Outline: as §1
# hGLP-1R = hGLP-1R (Homo sapiens, UniProt P43220); experiment: Functional cAMP formation (HTRF) in HEK-293 clonal cells expressing hGLP-1R, 0.1% bovine casein, without or with 1.0% human serum albumin; format: cell-based; set-up: expressed in transfected cells; settings: for Emax: percent of maximal response to GLP-1(7-36)NH2, arithmetic mean; for EC50: cAMP, 0.1% bovine casein (no human serum albumin), geometric mean
# Outline: as §1
# hGLP-1R, sequence (P43220 24-463): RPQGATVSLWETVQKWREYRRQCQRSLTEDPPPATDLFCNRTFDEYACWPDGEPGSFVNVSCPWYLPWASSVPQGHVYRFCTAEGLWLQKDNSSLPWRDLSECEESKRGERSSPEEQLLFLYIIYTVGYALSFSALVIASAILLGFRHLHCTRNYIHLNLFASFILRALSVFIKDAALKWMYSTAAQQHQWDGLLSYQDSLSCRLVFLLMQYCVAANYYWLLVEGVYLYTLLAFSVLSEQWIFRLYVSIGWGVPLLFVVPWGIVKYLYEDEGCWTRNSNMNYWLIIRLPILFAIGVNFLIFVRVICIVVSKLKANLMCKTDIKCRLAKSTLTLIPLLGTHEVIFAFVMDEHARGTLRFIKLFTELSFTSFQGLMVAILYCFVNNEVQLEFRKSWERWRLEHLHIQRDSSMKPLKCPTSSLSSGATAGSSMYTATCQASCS
# T3 sequence (P47871 26-477): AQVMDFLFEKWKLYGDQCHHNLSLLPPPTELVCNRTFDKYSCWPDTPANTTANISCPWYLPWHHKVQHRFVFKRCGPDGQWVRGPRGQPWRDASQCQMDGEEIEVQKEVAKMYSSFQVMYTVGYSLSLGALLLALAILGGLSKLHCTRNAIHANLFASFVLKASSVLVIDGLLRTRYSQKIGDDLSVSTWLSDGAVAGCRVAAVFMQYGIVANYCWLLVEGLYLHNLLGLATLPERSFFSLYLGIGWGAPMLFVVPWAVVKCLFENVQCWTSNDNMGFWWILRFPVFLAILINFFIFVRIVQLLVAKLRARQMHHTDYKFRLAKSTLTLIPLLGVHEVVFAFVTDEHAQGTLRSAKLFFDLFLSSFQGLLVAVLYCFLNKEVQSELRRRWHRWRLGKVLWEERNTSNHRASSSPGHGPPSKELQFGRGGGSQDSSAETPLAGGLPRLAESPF
Compound,"Ki ([1]; human GIPR, geometric mean (SEM, n), read-out: Binding Affinity Ki, nM (SEM, n) hGIPR)","Emax (hGIPR; HEK293, cAMP, 37° C., 0.1% bovine casein and 1.0% human serum albumin, read-out: hGIPR Emax, % ± SEM)","Emax (hGIPR; HEK293, cAMP, 37° C., 0.1% bovine casein, arithmetic mean, read-out: hGIPR Emax, % ± SEM)","EC50 (hGIPR; 37° C., 0.1% bovine casein (no human serum albumin), geometric mean, read-out: hGIPR EC50, nM (SEM, n))","EC50 (hGIPR; 37° C., 0.1% bovine casein and 1.0% human serum albumin, geometric mean (SEM, n), read-out: hGIPR EC50, nM (SEM, n))","EC50 (hGCGR; 0.1% bovine casein (no human serum albumin), geometric mean, read-out: hGCGR EC50, nM (SEM, n))","EC50 (hGCGR; 0.1% bovine casein and 1.0% human serum albumin, geometric mean (SEM, n), read-out: hGCGR EC50, nM (SEM, n))","Emax (hGLP-1R; HEK293, cAMP, 37° C., 0.1% bovine casein, read-out: hGLP-1R Emax, % ± SEM)","EC50 (hGLP-1R; 37° C., read-out: hGLP-1R EC50, nM (SEM, n))",Ki [1],"Emax (hGIPR; HEK293, read-out: hGIPR Emax, % ± SEM, cAMP, 37° C., 0.1% bovine casein and 1.0% human serum albumin)","EC50 (hGIPR; hGIPR EC50, nM (SEM, n), 37° C., 0.1% bovine casein (no human serum albumin), geometric mean)","EC50 (hGCGR; hGCGR EC50, nM (SEM, n), 0.1% bovine casein (no human serum albumin), geometric mean)","EC50 (hGCGR; hGCGR EC50, nM (SEM, n), 0.1% bovine casein and 1.0% human serum albumin, geometric mean (SEM, n))","Emax (hGLP-1R; HEK293, read-out: hGLP-1R Emax, % ± SEM, cAMP, 37° C., 0.1% bovine casein)","EC50 (hGLP-1R; hGLP-1R EC50, nM (SEM, n), 37° C.)"
CCCC[C@H](NC(=O)[C@H](CC(=O)O)NC(=O)[C@H](CO)NC(=O)[C@@H](NC(=O)[C@](C)(Cc1ccccc1F)NC(=O)[C@@H](NC(=O)CNC(=O)[C@H](CCC(=O)O)NC(=O)C(C)(C)NC(=O)[C@@H](N)Cc1ccc(O)cc1)[C@@H](C)O)[C@@H](C)O)C(=O)N[C@@H](CO)C(=O)N[C@H](C(=O)N[C@@](C)(CC(C)C)C(=O)N[C@@H](CC(C)C)C(=O)N[C@@H](CC(=O)O)C(=O)N[C@@H](CCCN)C(=O)N[C@@H](CCC(N)=O)C(=O)N[C@@H](C)C(=O)N[C@@H](CCC(N)=O)C(=O)NC(C)(C)C(=O)N[C@@H](CCCN)C(=O)N[C@@H](Cc1ccccc1)C(=O)N[C@H](C(=O)N[C@@H](CCCCNC(=O)COCCOCCNC(=O)COCCOCCNC(=O)CC[C@H](NC(=O)CCCCCCCCCCCCC(=O)O)C(=O)O)C(=O)N[C@@](C)(Cc1ccc(O)cc1)C(=O)N[C@@H](CC(C)C)C(=O)N[C@H](C(=O)N[C@@H](CCCCNC(=O)COCCOCCNC(=O)COCCOCCNC(=O)CC[C@H](NC(=O)CCCCCCCCCCCCC(=O)O)C(=O)O)C(=O)NCC(=O)NCC(=O)N1CCC[C@H]1C(=O)N[C@@H](CO)C(=O)N[C@@H](CO)C(=O)NCC(=O)N[C@@H](C)C(=O)N1CCC[C@H]1C(=O)N1CCC[C@H]1C(=O)N1CCC[C@H]1C(=O)N[C@@H](CO)C(N)=O)[C@@H](C)CC)[C@@H](C)CC)[C@@H](C)CC [Example 490],0.0288 nM,97.1%,110%,0.0122 nM,0.976 nM,> 9950 nM,> 9950 nM,115%,0.143 nM,–,–,–,–,–,–,–
CC[C@H](C)[C@H](NC(=O)[C@H](CC(C)C)NC(=O)[C@](C)(Cc1ccc(O)cc1)NC(=O)[C@H](CCCCNC(=O)COCCOCCNC(=O)COCCOCCNC(=O)CC[C@H](NC(=O)CCCCCCCCCOc1ccc(C(=O)O)cc1)C(=O)O)NC(=O)[C@@H](NC(=O)[C@H](Cc1ccccc1)NC(=O)[C@H](CCCN)NC(=O)C(C)(C)NC(=O)[C@H](CCC(N)=O)NC(=O)[C@H](C)NC(=O)[C@H](CCC(N)=O)NC(=O)[C@H](CCCN)NC(=O)[C@H](CC(=O)O)NC(=O)[C@H](CC(C)C)NC(=O)[C@](C)(CC(C)C)NC(=O)[C@@H](NC(=O)C(C)(C)NC(=O)[C@H](Cc1ccc(O)cc1)NC(=O)[C@H](CC(=O)O)NC(=O)[C@H](CO)NC(=O)[C@@H](NC(=O)[C@](C)(Cc1ccccc1F)NC(=O)[C@@H](NC(=O)CNC(=O)[C@H](CCC(=O)O)NC(=O)C(C)(C)NC(=O)[C@@H](N)Cc1ccc(O)cc1)[C@@H](C)O)[C@@H](C)O)[C@@H](C)CC)[C@@H](C)CC)C(=O)N[C@@H](CCCCNC(=O)COCCOCCNC(=O)COCCOCCNC(=O)CC[C@H](NC(=O)CCCCCCCCCOc1ccc(C(=O)O)cc1)C(=O)O)C(=O)NCC(=O)NCC(=O)N1CCC[C@H]1C(=O)N[C@@H](CO)C(=O)N[C@@H](CO)C(=O)NCC(=O)N[C@@H](C)C(=O)N1CCC[C@H]1C(=O)N1CCC[C@H]1C(=O)N1CCC[C@H]1C(=O)N[C@@H](CO)C(N)=O [Example 492],–,–,–,–,–,–,–,–,–,0.0264 nM,88.7%,0.0125 nM,> 9950 nM,> 9950 nM,117%,0.143 nM
